Assay [1] deals with BK currents (CHO cells permanently transfected with cloned α-hSlo and β-bSlo) (Homo sapiens, UniProt Q12791). As to the kind of experiment: Electrophysiological studies: whole-cell patch-clamp of BK currents. The class given is cell-based. Conditions: ratio of current increase after application of compound (20 μM) relative to the control current before compound application; steady-state. How it is done:
Electrophysiological Studies:
CHO cells permanently transfected with cloned α-hSlo and β-bSlo were maintained as described above and used for electrophysiological characterisation. The whole-cell configuration of the patch-lamp technique was used to determine the effect of modulators on BK currents in these cells. The cell line expressing functional BK currents (Zhou et al., Pflügers Arch. 436, p. 725 (1998)) were plated onto glass cover slips with a density of 1-5×10^4 cells/cover slip, incubated (37° C., 5% CO2) and used for patch-lamp experiments within 24-48 h. Cells were bathed in mammalian ringer solutions containing (in mM): 160NaCl, 4.5KCl, 2CaCl2, 1MgCl2, 10HEPES, adjusted to pH 7.4, 290-310 mOsm. The internal pipette solution contained (in mM): 160KCl, 2CaCl2, 1MgCl2, 10 HEPES, EGTA was added to reach a free [Ca^2+]internal=1×10^−6M, adjusted to pH 7.2, 290-310 mOsm. Borosilicate pipettes with a resistance of 2-3 MΩ were filled with the internal solution and mounted on an appropriate holder. […]
After addition of the compounds to the bath solution their modulating effect was determined by the increase or decrease of specific BK currents after reaching steady-state relative to the BK current before application of drugs (see Table II).
(Patch clamp records ionic current or voltage across a cell membrane.)

In assay [2] the target is BK channels (CHO cells permanently transfected with cloned hSlo, α-hSlo and β-bSlo) (Homo sapiens, UniProt Q12791). As to the kind of experiment: Em-Assay: fluorescence membrane potential assay with voltage sensitive dye DiBAC(4)3. Conditions: ratio of the compound effect (50 μM) compared to the maximal effect of NS004 (25 or 50 μM). The class given is cell-based. The source says:
The large conductance, voltage-dependent and Ca^2+-activated potassium channel BK is a potassium selective ion channel and belongs to the subfamily of KCa channels. Four BK alpha-subunits form a functional channel that can be regulated by intracellular Ca^2+ concentration, membrane voltage, and other mechanisms like phosphorylation states or beta subunits. To test the biological activity of the compounds, we applied two different techniques, a fluorescence based assay using a voltage sensitive dye (Em-Assay) as well as exploiting electrophysiological methods.
CHO cells permanently transfected with cloned hSlo (α-hSlo and β-bSlo), yielding typical BK potassium currents (Zhou et al., Pflügers Arch., 436: 725-734 (1998), were used for the evaluation of compound activity. Activation or inhibition of BK channels in these cells leads to a change of the electrochemical gradient causing a hyperpolarized or depolarised membrane potential, respectively.
To determine changes in the membrane potential of the cells we used the voltage sensitive dye DiBaC(4)3 (Molecular Probes) in a kinetic assay system using a fluorescent plate reader (Manning and Sontheimer, J. Neurosci. Meth., 91: 73-81 (1999). The anionic bis-oxonol DiBAC(4)3 is a voltage sensitive dye which partitions from the extracellular environment into the cell where it reversibly binds to intracellular proteins, a kinetic process depending on the membrane potential of the cell. At depolarised potentials (i.e. at a reduced K^+ efflux due to blocked K^+ channels) the dye accumulates in the cell leading to an increased fluorescence intensity, due to its increased fluorescence if bound to cellular proteins. At hyperpolarized potentials (i.e. at an increased K^+ efflux due to the opening of K^+ channels), the dye partitions out of the cell causing a decreased fluorescence intensity.
hslo transfected CHO cells where maintained in DMEM supplemented with 10% FCS, 250 μg/ml Geneticin, 100 μg/m Hygromycin, 1×HT-Supplement, and 1×Non-essential Amino Acids and cultured in a humidified CO2 incubator. After trypsination, cells where plated with a density of 5×10^4 cells per well on a clear 96-well plate and incubated for 24 h. Cells where washed once with PBS, once with PBS containing 20 mM HEPES (adjusted to pH 7.4 with NaOH) and 2 μM DiBAC(4)3 (DPBS-DiBAC solution). 180 μl of the dPBS-DiBAC solution was then added to the cells and the plate incubated for 30-60 min at 37° C. During this time the dye could partition into the cells and reach a certain steady-state distribution, depending on the resting membrane potential. Test and reference compounds were stored as DMSO stock solutions and diluted in dPBS-DiBAC solution to the desired concentration.
Fluorescence intensity (Ex.: 485 nm/Em.: 520 nm) of each well was detected in the plate reader (Fluostar, BMG) every 60 seconds. After recording the baseline fluorescence for 7 minutes, 20 μl test- and reference compounds were added and the fluorescence intensity was detected for additional 15 minutes. Background was subtracted, data values were normalized and expressed as a change in fluorescence intensity against time. The change in fluorescence intensity caused by the test compounds was evaluated, compared to the effect of the reference compound NS004, and the ratio was determined (see Table I).

Each structure is given as a SMILES string.

Sequence of BK channels (CHO cells permanently transfected with cloned hSlo, α-hSlo and β-bSlo) (Q12791 whole entry): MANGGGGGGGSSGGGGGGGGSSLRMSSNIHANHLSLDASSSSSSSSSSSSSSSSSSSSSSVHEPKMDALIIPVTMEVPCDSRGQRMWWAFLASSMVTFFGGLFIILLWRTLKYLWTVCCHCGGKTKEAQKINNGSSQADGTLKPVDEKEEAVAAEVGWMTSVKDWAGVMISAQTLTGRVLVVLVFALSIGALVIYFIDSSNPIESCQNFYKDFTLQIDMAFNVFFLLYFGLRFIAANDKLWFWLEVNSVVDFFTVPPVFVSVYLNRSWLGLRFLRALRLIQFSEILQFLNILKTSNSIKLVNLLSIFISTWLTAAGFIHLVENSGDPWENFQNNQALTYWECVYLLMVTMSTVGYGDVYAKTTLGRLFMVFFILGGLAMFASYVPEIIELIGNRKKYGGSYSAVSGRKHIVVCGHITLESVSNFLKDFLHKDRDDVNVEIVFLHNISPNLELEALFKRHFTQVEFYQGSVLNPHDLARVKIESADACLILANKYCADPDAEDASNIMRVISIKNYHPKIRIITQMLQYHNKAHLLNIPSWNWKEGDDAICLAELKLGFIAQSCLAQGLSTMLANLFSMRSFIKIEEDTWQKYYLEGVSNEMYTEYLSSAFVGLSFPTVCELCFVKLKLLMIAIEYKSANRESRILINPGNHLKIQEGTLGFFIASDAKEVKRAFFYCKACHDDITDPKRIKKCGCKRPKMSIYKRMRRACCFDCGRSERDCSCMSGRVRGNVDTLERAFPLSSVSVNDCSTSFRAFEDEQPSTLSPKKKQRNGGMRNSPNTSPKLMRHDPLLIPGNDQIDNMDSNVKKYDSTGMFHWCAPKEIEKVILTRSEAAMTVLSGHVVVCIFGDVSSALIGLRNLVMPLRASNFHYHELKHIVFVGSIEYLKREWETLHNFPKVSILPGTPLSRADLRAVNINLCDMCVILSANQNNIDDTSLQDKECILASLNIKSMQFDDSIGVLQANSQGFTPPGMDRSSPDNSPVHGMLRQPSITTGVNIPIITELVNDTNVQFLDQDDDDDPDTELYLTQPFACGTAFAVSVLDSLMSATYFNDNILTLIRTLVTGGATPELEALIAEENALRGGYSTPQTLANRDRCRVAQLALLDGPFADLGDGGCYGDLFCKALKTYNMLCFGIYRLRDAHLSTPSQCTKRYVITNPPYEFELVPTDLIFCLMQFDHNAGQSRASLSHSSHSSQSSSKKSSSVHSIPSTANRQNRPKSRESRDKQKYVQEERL
Sequence of BK channels (CHO cells permanently transfected with cloned hSlo, α-hSlo and β-bSlo) (Q28067 whole entry partner): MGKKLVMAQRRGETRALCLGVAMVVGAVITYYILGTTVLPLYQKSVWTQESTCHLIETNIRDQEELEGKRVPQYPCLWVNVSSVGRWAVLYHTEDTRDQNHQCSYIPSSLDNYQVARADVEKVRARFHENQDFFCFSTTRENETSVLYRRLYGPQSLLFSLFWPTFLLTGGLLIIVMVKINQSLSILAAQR
Sequence of BK currents (CHO cells permanently transfected with cloned α-hSlo and β-bSlo) (Q12791 whole entry): as the sequence (Q12791 whole entry) above
Sequence of BK currents (CHO cells permanently transfected with cloned α-hSlo and β-bSlo) (Q28067 whole entry partner): as the sequence (Q28067 whole entry partner) above

For `COc1cc2c(c(OC)c1)C(c1cccc(OC(F)(F)F)c1)N(C(=O)c1ccc(OC(F)(F)F)cc1)CC2` (stereo not drawn) [Compound 30, [6,8-Dimethoxy-1-(3-tifluoromethoxy-phenyl)-3,4-dihydro-1H-isoquinolin-2-yl](4-trifluoromethoxy-phenyl)-metanone], the Effect result in assay [1] is listed as “+ (<1.2 = +)”. Besides, the Em effect result in assay [2] was “+ (0-1=+)”.

As to `COc1cc2c(c(OC)c1)C(c1ccc(O)cc1)N(C(=O)c1ccno1)CC2` (stereo not drawn) [Compound 27, [1-(4-Hydroxy-phenyl)-6,8-dimethoxy-3,4-dihydro-1H-isoquinolin-2-yl]-isoxazol-5-yl-methanone], the Em effect result in assay [2] was “+ (0-1=+)”.

With `COc1cc2c(c(OC)c1)C(c1ccc(O)cc1)N(C(=O)c1cccs1)CC2` (stereo not drawn) [Compound 25, [1-(4-Hydroxy-phenyl)-6,8-dimethoxy-3,4-dihydro-1H-iso-quinolin-2-yl]-thiophen-2-yl-methanone], in assay [2], the Em effect entry is given as “+ (0-1=+)”.

Regarding `COc1cc2c(c(OC)c1)C(c1ccc(O)cc1)N(C(=O)c1cnc3ccccc3n1)CC2` (stereo not drawn) [Compound 16, [1-(4-Hydroxy-phenyl)-6,8-dimethoxy-3,4-dihydro-1H-isoquinolin-2-yl]-quinoxalin-2-yl-methanone], the Em effect result in assay [2] is on record as “+ (0-1=+)”.

For `COc1cc2c(c(OC)c1)C(c1ccc(O)cc1)N(C(=O)c1ccccc1OC(F)(F)F)CC2` (stereo not drawn) [Compound 13], the Em effect entry in assay [2] is “+ (0-1=+)”.

Regarding `COc1cc2c(c(OC)c1)C(c1ccc(O)cc1)N(C(=O)c1cccc3ccccc13)CC2` (stereo not drawn) [Compound 17, [1-(4-Hydroxy-phenyl)-6,8-dimethoxy-3,4-dihydro-1H-isoquinolin-2-yl]-naphthalen-1-yl-methanone], in assay [2], the Em effect entry is on record as “+ (0-1=+)”.

In the case of `COc1cc2c(c(OC)c1)C(c1ccc(O)cc1)N(C(=O)C1CCCC1)CC2` (stereo not drawn) [Compound 19, Cyclopentyl-[1-(4-hydroxy-phenyl)-6,8-dimethoxy-3,4-dihydro-1H-isoquinolin-2-yl]-methanone], the Em effect result in assay [2] is listed as “+ (0-1=+)”.

With `COc1cccc(C(=O)N2CCc3cc(OC)cc(OC)c3C2c2ccc(O)cc2)c1` (stereo not drawn) [Compound 9, [1-(4-Hydroxy-phenyl)-6,8-dimethoxy-3,4-dihydro-1H-isoquinolin-2-yl]-(3-methoxy-phenyl)-methanone], the Em effect result in assay [2] is listed as “+ (0-1=+)”.

Consider `COc1cc2c(c(OC)c1)C(c1ccc(O)cc1)N(C(=O)CCCCBr)CC2` (stereo not drawn) [Compound 10, 5-Bromo-1-[1-(4-hydroxy-phenyl)-6,8-dimethoxy-3,4-dihydro-1H-isoquinolin-2-yl]-pentan-1-one], for which the Em effect result in assay [2] is on record as “+ (0-1=+)”.

As for `COc1cc2c(c(OC)c1)C(C)N(S(=O)(=O)c1cccc([N+](=O)[O-])c1)CC2` (stereo not drawn) [Compound 36, 6,8-Dimethoxy-1-methyl-2-(3-nitro-benzenesulfonyl)-1,2,3,4-tetrahydro-isoquinoline], in assay [1], the Effect entry is reported as “++ (>1.2 = ++)”. Also, the Em effect entry in assay [2] is “++ (>1-1.5=++)”.

Turning to `COc1ccc(C(=O)N2CCc3cc(OC)cc(OC)c3C2c2ccc(-c3ccccc3)cc2)cc1` (stereo not drawn) [Compound 1, (1-Biphenyl-4-yl-6,8-dimethoxy-3,4-dihydro-1H-isoquinolin-2-yl)-(4-methoxy-phenyl)-methanone], the Em effect entry in assay [2] is recorded as “+ (0-1=+)”.

For the compound `COc1cc2c(c(OC)c1)C(c1ccc(O)cc1)N(C(=O)c1cccc(C(F)(F)F)c1)CC2` (stereo not drawn) [Compound 18, [1-(4-Hydroxy-phenyl)-6,8-dimethoxy-3,4-dihydro-1H-isoquinolin-2-yl]-(3-trifluoromethyl-phenyl)-methanone], the Em effect result in assay [2] is “+ (0-1=+)”.

`COc1cc2c(c(OC)c1)C(c1ccc(-c3ccccc3)cc1)N(C(=O)c1cccc(Br)c1)CC2` (stereo not drawn) [Compound 3, (1-Biphenyl-4-yl-6,8-dimethoxy-3,4-dihydro-1H-isoquinolin-2-yl)-(3-bromo-phenyl) methanone]: the Em effect entry in assay [2] is on record as “+ (0-1=+)”.

These data come from patent publication US20050070570A1, “Novel potassium channels modulators” (4SC AG, priority 2003, published 2005).
